Measured values: patent US9212182B2, “Bicyclic sulfonamide compounds as sodium channel inhibitors” (AMGEN INC., priority 2013, dated 2015)
pIC50: −log10 of the molar value.

These molecules were tested against Nav 1.7 (Homo sapiens (Human), UniProt Q15858) (assay: in-vitro Nav 1.7 PX (IC50)). Details: not given.
Format: cell-based

Sequence of Nav 1.7 (Q15858 whole entry): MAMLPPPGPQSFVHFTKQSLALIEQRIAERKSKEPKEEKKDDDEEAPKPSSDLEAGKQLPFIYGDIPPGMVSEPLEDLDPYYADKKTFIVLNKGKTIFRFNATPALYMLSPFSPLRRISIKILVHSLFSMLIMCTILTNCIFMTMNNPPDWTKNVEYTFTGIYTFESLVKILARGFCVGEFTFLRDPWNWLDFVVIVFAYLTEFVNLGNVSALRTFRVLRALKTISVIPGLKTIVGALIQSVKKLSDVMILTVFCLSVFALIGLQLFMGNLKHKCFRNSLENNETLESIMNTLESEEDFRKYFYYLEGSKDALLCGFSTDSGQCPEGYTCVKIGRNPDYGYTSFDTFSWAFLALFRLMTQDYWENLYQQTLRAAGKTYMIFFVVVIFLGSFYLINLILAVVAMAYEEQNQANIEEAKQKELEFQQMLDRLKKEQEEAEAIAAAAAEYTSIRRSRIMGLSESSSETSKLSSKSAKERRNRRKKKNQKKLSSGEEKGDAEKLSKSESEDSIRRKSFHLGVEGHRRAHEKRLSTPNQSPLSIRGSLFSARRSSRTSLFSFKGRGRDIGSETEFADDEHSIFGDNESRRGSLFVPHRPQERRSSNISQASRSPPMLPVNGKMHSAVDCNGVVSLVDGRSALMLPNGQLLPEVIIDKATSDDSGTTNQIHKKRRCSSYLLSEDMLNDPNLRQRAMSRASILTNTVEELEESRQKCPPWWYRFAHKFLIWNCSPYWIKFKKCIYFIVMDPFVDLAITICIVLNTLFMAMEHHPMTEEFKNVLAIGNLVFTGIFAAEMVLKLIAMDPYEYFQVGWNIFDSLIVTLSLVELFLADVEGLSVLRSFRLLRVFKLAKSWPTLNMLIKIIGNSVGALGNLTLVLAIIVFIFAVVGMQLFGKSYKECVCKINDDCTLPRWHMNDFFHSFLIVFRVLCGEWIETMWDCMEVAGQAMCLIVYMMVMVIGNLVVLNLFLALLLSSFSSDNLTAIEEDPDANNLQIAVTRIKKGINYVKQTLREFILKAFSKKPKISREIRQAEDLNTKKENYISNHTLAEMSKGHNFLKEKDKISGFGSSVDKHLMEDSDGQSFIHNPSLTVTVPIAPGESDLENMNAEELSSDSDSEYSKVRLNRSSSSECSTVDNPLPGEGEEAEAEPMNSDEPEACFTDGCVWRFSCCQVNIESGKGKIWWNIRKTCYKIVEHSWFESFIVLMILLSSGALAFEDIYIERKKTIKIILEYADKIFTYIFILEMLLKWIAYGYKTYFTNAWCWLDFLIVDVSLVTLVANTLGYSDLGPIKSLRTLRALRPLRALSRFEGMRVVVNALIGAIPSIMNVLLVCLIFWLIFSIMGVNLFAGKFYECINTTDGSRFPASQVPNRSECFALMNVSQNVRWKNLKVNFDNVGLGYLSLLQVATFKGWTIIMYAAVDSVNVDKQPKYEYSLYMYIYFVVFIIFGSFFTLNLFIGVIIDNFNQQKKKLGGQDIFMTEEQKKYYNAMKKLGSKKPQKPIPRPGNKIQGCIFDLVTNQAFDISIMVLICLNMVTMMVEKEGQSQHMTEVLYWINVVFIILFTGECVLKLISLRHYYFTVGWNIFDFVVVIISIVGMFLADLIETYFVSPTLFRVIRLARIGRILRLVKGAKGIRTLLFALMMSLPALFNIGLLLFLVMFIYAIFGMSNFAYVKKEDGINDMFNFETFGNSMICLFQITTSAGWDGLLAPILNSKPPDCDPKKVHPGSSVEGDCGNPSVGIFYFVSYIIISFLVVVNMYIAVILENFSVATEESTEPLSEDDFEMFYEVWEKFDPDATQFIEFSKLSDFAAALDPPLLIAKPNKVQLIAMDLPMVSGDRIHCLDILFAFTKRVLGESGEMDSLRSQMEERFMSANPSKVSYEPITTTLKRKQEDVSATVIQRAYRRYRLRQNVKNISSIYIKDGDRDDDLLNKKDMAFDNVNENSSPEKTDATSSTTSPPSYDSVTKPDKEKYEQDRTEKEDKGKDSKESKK

Row | pIC50 | Compound
1 | 7.46 | COc1cc(C#CC2(F)CCCC2)c(F)cc1-n1c(=O)ccc2cc(S(=O)(=O)Nc3ccon3)ccc21 (atropisomer, axis not shown; (P)) [Example 1153, (P)-1-(5-fluoro-4-((1-fluorocyclopentyl)ethynyl)-2-methoxyphenyl)-N-3-isoxazolyl-2-oxo-1,2-dihydro-6-quinolinesulfonamide]
2 | 7.38 | COc1cc(-c2cnc(OC)c(Cl)c2)c(F)cc1-n1c(=O)ccc2cc(S(=O)(=O)Nc3ncc(F)cn3)ccc21 (atropisomer, axis not shown; (P)) [Example 1156, (P)-1-(4-(5-chloro-6-methoxy-3-pyridinyl)-5-fluoro-2-methoxyphenyl)-N-(5-fluoro-2-pyrimidinyl)-2-oxo-1,2-dihydro-6-quinolinesulfonamide]
3 | 7.20 | COc1cc(-c2cnc(OC)c(Cl)c2)c(F)cc1-n1c(=O)ccc2cc(S(=O)(=O)Nc3cccnn3)ccc21 (atropisomer, axis not shown; (P)) [Example 1157, (P)-1-(4-(5-chloro-6-methoxy-3-pyridinyl)-5-fluoro-2-methoxyphenyl)-2-oxo-N-3-pyridazinyl-1,2-dihydro-6-quinolinesulfonamide]
4 | 7.02 | COc1cc(OC)cc(-c2cc(OC)c(-n3c(=O)ccc4cc(S(=O)(=O)Nc5ccnc(C)n5)ccc43)cc2F)c1 (atropisomer, axis not shown; (P)) [Example 1171, (P)-1-(2-fluoro-3′,5,5′-trimethoxy-4-biphenylyl)-N-(2-methyl-4-pyrimidinyl)-2-oxo-1,2-dihydro-6-quinolinesulfonamide]
5 | 7.54 | COc1cc(-c2cccc(OC(F)F)c2)c(F)cc1-n1c(=O)ccc2cc(S(=O)(=O)Nc3cccnn3)ccc21 (atropisomer, axis not shown; (P)) [Example 1172, (P)-1-(3′-(difluoromethoxy)-2-fluoro-5-methoxy-4-biphenylyl)-2-oxo-N-3-pyridazinyl-1,2-dihydro-6-quinolinesulfonamide]
6 | 6.84 | COc1cc(-c2cccc(OC(F)F)c2)c(F)cc1-n1c(=O)ccc2cc(S(=O)(=O)Nc3cc(C)ncn3)ccc21 (atropisomer, axis not shown; (P)) [Example 1173, (P)-1-(3′-(difluoromethoxy)-2-fluoro-5-methoxy-4-biphenylyl)-N-(6-methyl-4-pyrimidinyl)-2-oxo-1,2-dihydro-6-quinolinesulfonamide]
7 | 5.58 | COc1cc(Br)c(F)cc1-n1c(=O)ccc2cc(S(=O)(=O)Nc3cc(OCC4CC4)ncn3)ccc21 (atropisomer, axis not shown; (P)) [Example 1183, (P)-1-(4-bromo-5-fluoro-2-methoxyphenyl)-N-(6-(cyclopropylmethoxy)-4-pyrimidinyl)-2-oxo-1,2-dihydro-6-quinolinesulfonamide]
8 | 5.47 | COc1cc(Br)c(F)cc1-n1c(=O)ccc2cc(S(=O)(=O)Nc3cc(OCC4CCC4)ncn3)ccc21 (atropisomer, axis not shown; (P)) [Example 1184, (P)-1-(4-bromo-5-fluoro-2-methoxyphenyl)-N-(6-(cyclobutylmethoxy)-4-pyrimidinyl)-2-oxo-1,2-dihydro-6-quinolinesulfonamide]
9 | 5.18 | COc1cc(Br)c(F)cc1-n1c(=O)ccc2cc(S(=O)(=O)Nc3cc(OCC4CCCC4)ncn3)ccc21 (atropisomer, axis not shown; (P)) [Example 1185, (P)-1-(4-bromo-5-fluoro-2-methoxyphenyl)-N-(6-(cyclopentylmethoxy)-4-pyrimidinyl)-2-oxo-1,2-dihydro-6-quinolinesulfonamide]
10 | 6.61 | CCCOc1cc(NS(=O)(=O)c2ccc3c(ccc(=O)n3-c3cc(F)c(Br)cc3OC)c2)ncn1 (atropisomer, axis not shown; (P)) [Example 1186, (P)-1-(4-bromo-5-fluoro-2-methoxyphenyl)-2-oxo-N-(6-propoxy-4-pyrimidinyl)-1,2-dihydro-6-quinolinesulfonamide]
11 | 5.78 | COc1cc(Br)c(F)cc1-n1c(=O)ccc2cc(S(=O)(=O)Nc3cc(OCC(C)C)ncn3)ccc21 (atropisomer, axis not shown; (P)) [Example 1187, (P)-1-(4-bromo-5-fluoro-2-methoxyphenyl)-N-(6-(2-methylpropoxy)-4-pyrimidinyl)-2-oxo-1,2-dihydro-6-quinolinesulfonamide]
12 | 4.97 | COc1cc(Br)c(F)cc1-n1c(=O)ccc2cc(S(=O)(=O)Nc3cc(OC4CCC4)ncn3)ccc21 (atropisomer, axis not shown; (P)) [Example 1188, (P)-1-(4-bromo-5-fluoro-2-methoxyphenyl)-N-(6-(cyclobutyloxy)-4-pyrimidinyl)-2-oxo-1,2-dihydro-6-quinolinesulfonamide]
13 | 5.08 | COc1cc(Br)c(F)cc1-n1c(=O)ccc2cc(S(=O)(=O)Nc3cc(OCC4(C)CC4)ncn3)ccc21 (atropisomer, axis not shown; (P)) [Example 1189, (P)-1-(4-bromo-5-fluoro-2-methoxyphenyl)-N-(6-((1-methylcyclopropyl)methoxy)-4-pyrimidinyl)-2-oxo-1,2-dihydro-6-quinolinesulfonamide]
14 | 6.73 | COc1nc(-c2ccc(F)cc2)c(Cl)cc1-n1c(=O)ccc2cc(S(=O)(=O)Nc3ccon3)ccc21 (atropisomer, axis not shown; (P)) [Example 1203, (P)-1-(5-chloro-6-(4-fluorophenyl)-2-methoxy-3-pyridinyl)-N-3-isoxazolyl-2-oxo-1,2-dihydro-6-quinolinesulfonamide]
15 | 6.54 | COc1cc(-c2cccc(OC(C)C)c2)ccc1-n1c(=O)ccc2cc(S(=O)(=O)Nc3cc(C)ncn3)ccc21 (atropisomer, axis not shown; (P)) [Example 1205, (P)-1-(3-methoxy-3′-(1-methylethoxy)-4-biphenylyl)-N-(6-methyl-4-pyrimidinyl)-2-oxo-1,2-dihydro-6-quinolinesulfonamide]
16 | 6.23 | COc1cc(-c2cccc(OC(C)C)c2)ccc1-n1c(=O)ccc2cc(S(=O)(=O)Nc3nccc(C)n3)ccc21 (atropisomer, axis not shown; (P)) [Example 1206, (P)-1-(3-methoxy-3′-(1-methylethoxy)-4-biphenylyl)-N-(4-methyl-2-pyrimidinyl)-2-oxo-1,2-dihydro-6-quinolinesulfonamide]

Same assay, conditions: in-vitro Nav 1.7 PX data

Row | pIC50 | Compound
17 | 7.52 | COc1cc(-c2ccc(Cl)c(C)c2)c(F)cc1-n1c(=O)ccc2cc(S(=O)(=O)Nc3ncc(F)cn3)ccc21 (atropisomer, axis not shown; (P)) [Example 692, (P)-1-(4′-chloro-2-fluoro-5-methoxy-3′-methyl-4-biphenylyl)-N-(5-fluoro-2-pyrimidinyl)-2-oxo-1,2-dihydro-6-quinolinesulfonamide]
18 | 6.73 | COc1cc(-c2ccc(Cl)c(C)c2)c(F)cc1-n1c(=O)ccc2cc(S(=O)(=O)Nc3ccc(F)cn3)ccc21 (atropisomer, axis not shown; (P)) [Example 693, (P)-1-(4′-chloro-2-fluoro-5-methoxy-3′-methyl-4-biphenylyl)-N-(5-fluoro-2-pyridinyl)-2-oxo-1,2-dihydro-6-quinolinesulfonamide]
19 | 7.57 | COc1cc(-c2ccc(Cl)c(C)c2)c(F)cc1-n1c(=O)ccc2cc(S(=O)(=O)Nc3ncco3)ccc21 (atropisomer, axis not shown; (P)) [Example 694, (P)-1-(4′-chloro-2-fluoro-5-methoxy-3′-methyl-4-biphenylyl)-N-1,3-oxazol-2-yl-2-oxo-1,2-dihydro-6-quinolinesulfonamide]
20 | 7.92 | COc1cc(-c2ccc(Cl)c(C)c2)c(F)cc1-n1c(=O)ccc2cc(S(=O)(=O)Nc3cccnn3)ccc21 (atropisomer, axis not shown; (P)) [Example 695, (P)-1-(4′-chloro-2-fluoro-5-methoxy-3′-methyl-4-biphenylyl)-2-oxo-N-3-pyridazinyl-1,2-dihydro-6-quinolinesulfonamide]

Same assay, conditions: in-vitro Nav 1.7 PX data, Table 4

Row | pIC50 | Compound
21 | 7.05 | COc1cc(-c2cnc(OC)c(Cl)c2)c(F)cc1-n1c(=O)ccc2cc(S(=O)(=O)Nc3ncco3)ccc21 (atropisomer, axis not shown; (P)) [Example 1158, (P)-1-(4-(5-chloro-6-methoxy-3-pyridinyl)-5-fluoro-2-methoxyphenyl)-N-1,3-oxazol-2-yl-2-oxo-1,2-dihydro-6-quinolinesulfonamide]
22 | 7.29 | COc1cc(-c2cnc(OC)c(Cl)c2)c(F)cc1-n1c(=O)ccc2cc(S(=O)(=O)Nc3cc(C)ncn3)ccc21 (atropisomer, axis not shown; (P)) [Example 1159, (P)-1-(4-(5-chloro-6-methoxy-3-pyridinyl)-5-fluoro-2-methoxyphenyl)-N-(6-methyl-4-pyrimidinyl)-2-oxo-1,2-dihydro-6-quinolinesulfonamide]
23 | 7.38 | COc1cc(-c2cnc(OC)c(Cl)c2)c(F)cc1-n1c(=O)ccc2cc(S(=O)(=O)Nc3ccnc(C)n3)ccc21 (atropisomer, axis not shown; (P)) [Example 1160, (P)-1-(4-(5-chloro-6-methoxy-3-pyridinyl)-5-fluoro-2-methoxyphenyl)-N-(2-methyl-4-pyrimidinyl)-2-oxo-1,2-dihydro-6-quinolinesulfonamide]
24 | 7.70 | COc1cc(-c2cnc(OC)c(Cl)c2)c(F)cc1-n1c(=O)ccc2cc(S(=O)(=O)Nc3ccc(F)cn3)ccc21 (atropisomer, axis not shown; (P)) [Example 1161, (P)-1-(4-(5-chloro-6-methoxy-3-pyridinyl)-5-fluoro-2-methoxyphenyl)-N-(5-fluoro-2-pyridinyl)-2-oxo-1,2-dihydro-6-quinolinesulfonamide]
25 | 7.92 | COc1cc(-c2cnc(OC)c(Cl)c2)c(F)cc1-n1c(=O)ccc2cc(S(=O)(=O)Nc3cccc(F)n3)ccc21 (atropisomer, axis not shown; (P)) [Example 1162, (P)-1-(4-(5-chloro-6-methoxy-3-pyridinyl)-5-fluoro-2-methoxyphenyl)-N-(6-fluoro-2-pyridinyl)-2-oxo-1,2-dihydro-6-quinolinesulfonamide]
26 | 6.80 | COc1cc(-c2ccc(Cl)cc2)c(F)cc1-n1c(=O)ccc2cc(S(=O)(=O)Nc3ccc(F)cn3)ccc21 (atropisomer, axis not shown; (P)) [Example 1163, (P)-1-(4′-chloro-2-fluoro-5-methoxy-4-biphenylyl)-N-(5-fluoro-2-pyridinyl)-2-oxo-1,2-dihydro-6-quinolinesulfonamide]
